In this test the test system is HIV. Briefly: MT4 assay: antiviral HIV activity in MT-4 cells. Format: cell-based. As to conditions: read-out 96 hours later with cell titer glo, 10 point dose response. On the procedure:
Antiviral HIV activity and cytotoxicity values for compounds of the invention from Table 1 were measured in parallel in the HTLV-1 transformed cell line MT-4 based on the method previously described (Hazen et al., 2007, In vitro antiviral activity of the novel, tyrosyl-based human immunodeficiency virus (HIV) type 1 protease inhibitor brecanavir (GW640385) in combination with other antiretrovirals and against a panel of protease inhibitor-resistant HIV (Hazen et al., “In vitro antiviral activity of the novel, tyrosyl-based human immunodeficiency virus (HIV) type 1 protease inhibitor brecanavir (GW640385) in combination with other antiretrovirals and against a panel of protease inhibitor-resistant HIV”, Antimicrob. Agents Chemother. 2007, 51: 3147-3154; and Pauwels et al., “Sensitive and rapid assay on MT-4 cells for the detection of antiviral compounds against the AIDS virus”, J. of Virological Methods 1987, 16: 171-185).
Luciferase activity was measured 96 hours later by adding a cell titer glo (Promega, Madison, Wis.). Percent inhibition of cell protection data was plotted relative to no compound control. Under the same condition, cytotoxicity of the compounds was determined using cell titer Glo™ (Promega, Madison, Wis.). IC50s were determined from a 10 point dose response curve using 3-4-fold serial dilution for each compound, which spans a concentration range>1000 fold.
These values are plotted against the molar compound concentrations using the standard four parameter logistic equation: y=((Vmax*x^n)/(K^n+x^n))+Y2
Y2=minimum y n=slope factor
Vmax=maximum y x=compound concentration [M]

Setting [1] is: Human immunodeficiency virus 1, MT4, 96 h, read-out: HIV MT4 Assay IC50 (μM), HTLV-1 transformed cell line MT-4.

Structures can show the parent of a compound that is named as a salt. Where two headings read alike, the source gives them in different places.

Consider `Cc1nc2c(c3c(n2C)CCCC3)c(-c2ccc3c(c2C)NCCO3)c1[C@H](OC(C)(C)C)C(=O)O` (atropisomer, axis not shown; (P)) [Example 129, (2S)(P)-2-(tert-butoxy)-2-(2,9-dimethyl-4-(5-methyl-3,4-dihydro-2H-benzo[b][1,4]oxazin-6-yl)-6,7,8,9-tetrahydro-5H-pyrido[2,3-b]indol-3-yl)acetic acid, Trifluoroacetic acid salt], for which the IC50 (read-out: HIV MT4 Assay IC50, HTLV-1 transformed cell line MT-4, Trifluoroacetic acid salt) was found to be 1 µM.
For the compound `Cc1ccc(-c2c(C(OC(C)(C)C)C(=O)O)c(C)nc3c2ccn3Cc2ccc(F)cc2)cc1` (stereo not shown) [Example 1, 2-(tert-butoxy)-2-(1-(4-fluorobenzyl)-6-methyl-4-(p-tolyl)-1H-pyrrolo[2,3-b]pyridin-5-yl)acetic acid], the IC50 under setting [1] was 0.18 µM.
Still for that read-out and setting: with `Cc1ccc(-c2c([C@H](OC(C)(C)C)C(=O)O)c(C)nc3c2ccn3Cc2ccc(F)cc2)cc1` [Example 2, (S)-2-(tert-butoxy)-2-(1-(4-fluorobenzyl)-6-methyl-4-(p-tolyl)-1H-pyrrolo[2,3-b]pyridin-5-yl)acetic acid] the figure was 0.08 µM; with `Cc1nc2c(ccn2Cc2ccc(F)c(F)c2)c(-c2ccc(Cl)cc2)c1[C@H](OC(C)(C)C)C(=O)O` [Example 3, (S)-2-(tert-butoxy)-2-(4-(4-chlorophenyl)-1-(3,4-difluorobenzyl)-6-methyl-1H-pyrrolo[2,3-b]pyridin-5-yl)acetic acid], 0.09 µM.
On the same count and under the same terms, next, `Cc1ccc(-c2c(C(OC(C)(C)C)C(=O)O)c(C)nc3c2ccn3Cc2ccccn2)cc1` (stereo not shown) [Example 4, 2-(tert-Butoxy)-2-(6-methyl-1-(pyridin-2-ylmethyl)-4-(p-tolyl)-1H-pyrrolo[2,3-b]pyridin-5-yl)acetic acid, Trifluoroacetic acid salt]: 1.05 µM; `Cc1ccc(-c2c(C(OC(C)(C)C)C(=O)O)c(C)nc3c2ccn3Cc2ccc(F)c(F)c2)cc1` (stereo not shown) [Example 5, 2-(tert-butoxy)-2-(1-(3,4-difluorobenzyl)-6-methyl-4-(p-tolyl)-1H-pyrrolo[2,3-b]pyridin-5-yl)acetic acid]: 0.2 µM; `Cc1ccc(-c2c(C(OC(C)(C)C)C(=O)O)c(C)nc3c2ccn3Cc2cc(F)ccc2F)cc1` (stereo not shown) [Example 6, 2-(tert-butoxy)-2-(1-(2,5-difluorobenzyl)-6-methyl-4-(p-tolyl)-1H-pyrrolo[2,3-b]pyridin-5-yl)acetic acid]: 0.182 µM.
For the compound `Cc1ccc(-c2c([C@H](OC(C)(C)C)C(=O)O)c(C)nc3c2ccn3Cc2cc(F)ccc2F)cc1` [Example 7, (S)-2-(tert-butoxy)-2-(1-(2,5-difluorobenzyl)-6-methyl-4-(p-tolyl)-1H-pyrrolo[2,3-b]pyridin-5-yl)acetic acid], the IC50 under setting [1] stood at 0.106 µM.
Same read-out and setting: next, `Cc1ccc(-c2c(C(OC(C)(C)C)C(=O)O)c(C)nc3c2ccn3Cc2cc(F)c(F)c(F)c2)cc1` (stereo not shown) [Example 8, 2-(tert-butoxy)-2-(6-methyl-4-(p-tolyl)-1-(3,4,5-trifluorobenzyl)-1H-pyrrolo[2,3-b]pyridin-5-yl)acetic acid]: 0.16 µM.
As to `Cc1ccc(-c2c([C@H](OC(C)(C)C)C(=O)O)c(C)nc3c2ccn3Cc2cc(F)c(F)c(F)c2)cc1` [Example 9, (S)-2-(tert-butoxy)-2-(6-methyl-4-(p-tolyl)-1-(3,4,5-trifluorobenzyl)-1H-pyrrolo[2,3-b]pyridin-5-yl)acetic acid], under setting [1], the IC50 was found to be 0.04 µM.
For `Cc1ccc(-c2c([C@@H](OC(C)(C)C)C(=O)O)c(C)nc3c2ccn3Cc2cc(F)c(F)c(F)c2)cc1` [Example 10, (R)-2-(tert-butoxy)-2-(6-methyl-4-(p-tolyl)-1-(3,4,5-trifluorobenzyl)-1H-pyrrolo[2,3-b]pyridin-5-yl)acetic acid], under setting [1], the IC50 amounted to 10 µM.
`Cc1nc2c(ccn2Cc2ccc(F)c(F)c2)c(-c2ccc3c(c2)CCCO3)c1C(OC(C)(C)C)C(=O)O` (stereo not shown) [Example 11, 2-(tert-butoxy)-2-(4-(chroman-6-yl)-1-(3,4-difluorobenzyl)-6-methyl-1H-pyrrolo[2,3-b]pyridin-5-yl)acetic acid]: the IC50 under setting [1] was found to be 0.09 µM.
With `Cc1ccc(-c2c(C(OC(C)(C)C)C(=O)O)c(C)nc3c2ccn3Cc2ccc(C)c(F)c2)cc1` (stereo not shown) [Example 12, 2-(tert-butoxy)-2-(1-(3-fluoro-4-methylbenzyl)-6-methyl-4-(p-tolyl)-1H-pyrrolo[2,3-b]pyridin-5-yl)acetic acid], the IC50 under setting [1] was 2.1 µM.
Still for that read-out and setting: next, `Cc1ccc(-c2c(C(OC(C)(C)C)C(=O)O)c(C)nc3c2ccn3Cc2ccc(F)cc2Cl)cc1` (stereo not shown) [Example 13, 2-(tert-butoxy)-2-(1-(2-chloro-4-fluorobenzyl)-6-methyl-4-(p-tolyl)-1H-pyrrolo[2,3-b]pyridin-5-yl)acetic acid]: 0.43 µM.
With `Cc1ccc(-c2c([C@@H](OC(C)(C)C)C(=O)O)c(C)nc3c2ccn3[C@H](C)c2ccc(F)cc2)cc1` [Example 14, (R)-2-(tert-butoxy)-2-(1-((R)-1-(4-fluorophenyl)ethyl)-6-methyl-4-(p-tolyl)-1H-pyrrolo[2,3-b]pyridin-5-yl)acetic acid], the IC50 under setting [1] is 0.71 µM.
For `Cc1ccc(-c2c([C@H](OC(C)(C)C)C(=O)O)c(C)nc3c2ccn3[C@H](C)c2ccc(F)cc2)cc1` [Example 15, (S)-2-(tert-butoxy)-2-(1-((R)-1-(4-fluorophenyl)ethyl)-6-methyl-4-(p-tolyl)-1H-pyrrolo[2,3-b]pyridin-5-yl)acetic acid], the concentration for half-maximal inhibition (IC50) under setting [1] turned out to be 0.1 µM.
Still for that read-out and setting: next, `Cc1ccc(-c2c(C(OC(C)(C)C)C(=O)O)c(C)nc3c2ccn3Cc2ccc(Cl)c(F)c2)cc1` (stereo not shown) [Example 16, 2-(tert-butoxy)-2-(1-(4-chloro-3-fluorobenzyl)-6-methyl-4-(p-tolyl)-1H-pyrrolo[2,3-b]pyridin-5-yl)acetic acid]: 0.36 µM.
Same read-out and setting: next, `Cc1ccc(-c2c([C@@H](OC(C)(C)C)C(=O)O)c(C)nc3c2ccn3Cc2ccc(F)c(F)c2)cc1` [Example 17, (R)-2-(tert-butoxy)-2-(1-(3,4-difluorobenzyl)-6-methyl-4-(p-tolyl)-1H-pyrrolo[2,3-b]pyridin-5-yl)acetic acid]: 10 µM.
Same read-out and setting: next, `Cc1ccc(-c2c([C@H](OC(C)(C)C)C(=O)O)c(C)nc3c2ccn3Cc2ccc(F)c(F)c2)cc1` [Example 18, (S)-2-(tert-butoxy)-2-(1-(3,4-difluorobenzyl)-6-methyl-4-(p-tolyl)-1H-pyrrolo[2,3-b]pyridin-5-yl)acetic acid]: 0.1 µM.
Turning to `Cc1ccc(-c2c(C(OC(C)(C)C)C(=O)O)c(C)nc3c2ccn3Cc2ccccc2)cc1` (stereo not shown) [Example 19, 2-(1-benzyl-6-methyl-4-(p-tolyl)-1H-pyrrolo[2,3-b]pyridin-5-yl)-2-(tert-butoxy)acetic acid], the IC50 under setting [1] was 0.17 µM.
The same measure, in the same setting: next, `Cc1ccc(-c2c(C(OC(C)(C)C)C(=O)O)c(C)nc3c2ccn3Cc2cc(Cl)ccc2F)cc1` (stereo not shown) [Example 20, 2-(tert-butoxy)-2-(1-(5-chloro-2-fluorobenzyl)-6-methyl-4-(p-tolyl)-1H-pyrrolo[2,3-b]pyridin-5-yl)acetic acid]: 0.23 µM.
Turning to `Cc1ccc(-c2c(C(OC(C)(C)C)C(=O)O)c(C)nc3c2ccn3Cc2cccc(F)c2F)cc1` (stereo not shown) [Example 21, 2-(tert-butoxy)-2-(1-(2,3-difluorobenzyl)-6-methyl-4-(p-tolyl)-1H-pyrrolo[2,3-b]pyridin-5-yl)acetic acid], the IC50 under setting [1] was determined as 0.1 µM.
On the same count and under the same terms, with `Cc1ccc(-c2c(C(OC(C)(C)C)C(=O)O)c(C)nc3c2ccn3Cc2cccc(Cl)c2F)cc1` (stereo not shown) [Example 22, 2-(tert-butoxy)-2-(1-(3-chloro-2-fluorobenzyl)-6-methyl-4-(p-tolyl)-1H-pyrrolo[2,3-b]pyridin-5-yl)acetic acid] the figure was 0.86 µM.
The same measure, in the same setting: next, `Cc1ccc(-c2c(C(OC(C)(C)C)C(=O)O)c(C)nc3c2ccn3Cc2ccc(Cl)cc2F)cc1` (stereo not shown) [Example 23, 2-(tert-butoxy)-2-(1-(4-chloro-2-fluorobenzyl)-6-methyl-4-(p-tolyl)-1H-pyrrolo[2,3-b]pyridin-5-yl)acetic acid]: 0.27 µM.
As to `Cc1ccc(-c2c(C(OC(C)(C)C)C(=O)O)c(C)nc3c2ccn3Cc2ccc(F)cc2F)cc1` (stereo not shown) [Example 24, 2-(tert-butoxy)-2-(1-(2,4-difluorobenzyl)-6-methyl-4-(p-tolyl)-1H-pyrrolo[2,3-b]pyridin-5-yl)acetic acid], the IC50 under setting [1] stood at 0.125 µM.
For the compound `Cc1ccc(-c2c(C(OC(C)(C)C)C(=O)O)c(C)nc3c2ccn3Cc2ccc(F)c(C)c2)cc1` (stereo not shown) [Example 25, 2-(tert-butoxy)-2-(1-(4-fluoro-3-methylbenzyl)-6-methyl-4-(p-tolyl)-1H-pyrrolo[2,3-b]pyridin-5-yl)acetic acid], under setting [1], the IC50 was 0.14 µM.
As for `Cc1ccc(-c2c(C(OC(C)(C)C)C(=O)O)c(C)nc3c2ccn3Cc2c(F)cc(F)cc2F)cc1` (stereo not shown) [Example 26, 2-(tert-butoxy)-2-(6-methyl-4-(p-tolyl)-1-(2,4,6-trifluorobenzyl)-1H-pyrrolo[2,3-b]pyridin-5-yl)acetic acid], the IC50 under setting [1] amounted to 0.12 µM.
Regarding `Cc1nc2c(ccn2Cc2ccc(F)cc2)c(-c2ccc3c(c2)CCCO3)c1C(OC(C)(C)C)C(=O)O` (stereo not shown) [Example 27, 2-(tert-butoxy)-2-(4-(chroman-6-yl)-1-(4-fluorobenzyl)-6-methyl-1H-pyrrolo[2,3-b]pyridin-5-yl)acetic acid], the IC50 under setting [1] was determined as 0.08 µM.

The values above are taken from patent US8609653B2, “Azaindole compounds and methods for treating HIV” (priority 2011, dated 2013).
